In publication PMC4849758, “Rational Structure-Based Rescaffolding Approach to De Novo Design of Interleukin 10 (IL-10) Receptor-1 Mimetics” (PLoS ONE, 2016):
Bridge positions count the residues as written; N and C are the ends. Square brackets hold non-standard residues; d marks the D form. Peptide text beside a SMILES is read from it. * marks the point of attachment. Trp(5-OH) = N[C@@H](Cc1c[nH]c2ccc(O)cc12)C(=O)O; Butanoyl(4-guanidino) = N=C(N)NCCCC(=O)*

How the values were obtained:
[1] = biological target: T1, mIL-10C149Y (Mus musculus, UniProt P18893, C167Y); experiment: Thermal denaturation by circular dichroism (CD), Kd estimate from two-state unfolding model; format: binding, murine; conditions: 4.5 μM mimetic; for increase of native protein structure in presence of mimetic, percentage of the total change in the CD signal: at 332 K, average CD signal 215-230 nm, 2 μM mIL-10C149Y; for Kd: calculated from thermal denaturation CD data, 2 μM mIL-10C149Y dimer, two-state unfolding model, lower affinity limit reported
T1 construct: His8 tag (LEHHHHHHHH) from pET41b(+) (C); made in house
T1 sequence (P18893 19-178 C167Y): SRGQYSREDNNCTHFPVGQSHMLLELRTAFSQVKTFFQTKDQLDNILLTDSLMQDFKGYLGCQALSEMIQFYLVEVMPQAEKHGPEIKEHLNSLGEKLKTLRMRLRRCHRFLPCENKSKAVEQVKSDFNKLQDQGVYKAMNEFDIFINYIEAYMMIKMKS
Method: M1 was chemically synthesized, and its experimental binding affinity towards IL-10 was assessed by thermal stability measurements using circular dichroism (CD) and fluorescence (see materials and methods). For these studies, we used the readily available murine IL-10 mutant mIL-10C149Y in which Cys149 was replaced by the corresponding Tyr residue of the human protein, as it was previously shown to enhance protein refolding yield. Furthermore, this tyrosine would enhance the sensitivity of tryptophan fluorescence measurements (i.e. as stated above, it can act as energy donor for the tryptophan residue introduced as label in the mimetics).
Complex formation between M1 and mIL-10C149Y was determined by thermal denaturation using CD and the well-known negative ellipticity of IL-10 between 200 to 300 nm. […] The obtained curves shift to higher temperatures in the presence of M1. The shift is due to a lower degree of unfolded protein at any temperature in the presence of mimetic M1 as compared to the denaturation of mIL-10C149Y alone. […] At 332 K, the presence of M1 increased the native protein structure by 8%.
CD spectra were recorded with a J-815 instrument (Jasco, Gross-Umstadt, Germany) from 195 to 300 nm in 1-cm cuvettes at concentrations of 2 μM of mIL-10C149Y (dimer) and 4.5 μM of mimetics M1-M4. Ellipticity θ was recorded in millidegrees. Samples were heated from 298 to 364 K at a rate of 2 K/min under constant stirring to determine stabilization of IL-10/mimetic complexes. Estimates of binding affinities were derived with the assumption of a two state unfolding of mIL-10C149Y. The mimetics were assumed to stabilize exclusively the folded state. These simplifications allow applying equilibrium thermodynamics, such that the fraction Sn of the native state of mIL-10C149Y can be approximated: Sn = (1+ [M] Kd^-1 +Ku)^-1. Kd is the estimated dissociation constant of the mimetic, [M] its concentration. Ku is the temperature-dependent unfolding equilibrium constant (Ku = [denatured]/[native]) as measured by the unfolding curve of mIL-10C149Y in the absence of mimetics. […] In this case, the measured CD curves would be actually compatible with much higher mimetic affinities, because a local stabilization of the mimetic binding epitope on mIL-10C149Y is not counted as binding in the applied two state model but it is very likely to occur. For consistency, we have not explored the higher affinity limit that would still be compatible with the data. Instead, we report only the lower affinity range that complies with the assumptions, in order to prevent bias for overestimated mimetic affinities. […] Absolute thermodynamic parameters could only be obtained by isothermal titration calorimetry with the most promising mimetics. This of course required the initial confirmation of the binding of the precursor molecules which was accomplished by CD and Fluorescence Spectroscopy. Fluorescence emission at 360 nm was monitored simultaneously with the CD scan (the measuring beam served as the excitation light) using a second monochromator and photomultiplier in 90° geometry with respect to the CD absorption path. Thereby, temperature-dependent excitation spectra of the tryptophan at position two in the synthetic IL-10R1 mimetics were additionally obtained with the CD data acquisition.

[2] = biological target: T1, mIL-10C149Y; experiment: Isothermal titration calorimetry (ITC); format: binding, murine; conditions: for TΔS, entropic component of binding / ΔH, enthalpic term of binding: ITC; for TΔS, entropic component of binding / ΔH, enthalpic term of binding / Kd: 298 K; for Kd: inferred from ITC thermodynamic data, single site model, variable stoichiometry; for fold increase of binding affinity with respect to M2-M4 / fold increase of binding with respect to M1: ratio of Kd values; for fold increase of binding with respect to M1: M1 Kd from thermal denaturation
Source text: Further ligand optimization was accomplished by the introduction of an additional N-terminal H-bond acceptor such as Gln or Glu (M5, M6), which would allow interactions with the cationic side chains of IL-10R27 and IL-10K34 (helix A) or with IL-10N148 (helix F’) (Fig 2A). Favourable energies obtained for the interaction of IL-10 with an aliphatic carboxylate chemical probe supported this rationale. Furthermore, residues IL-10L46 (loop AB) and IL-10I145 (helix F’) would additionally contribute with van der Waals interactions with the aliphatic moieties of the side chains of the residues introduced at the N-teminus. […] Furthermore, these measurements supported the expected stoichiometry 2:1 mimetic:dimer-protein binding ratio as previously observed for the IL-10R1/IL-10 complex.
The final constant heat signals were subtracted to correct for the solution enthalpy of the respective IL-10R1 mimetics. The resulting integrated heat curve was analyzed with the associated software Origin 9 [74] allowing a variable stoichiometry but restriction to a single Kd value (identical binding sites of the dimeric protein).

| increase of native protein structure in presence of mimetic, percentage of the total change in the CD signal [1] | Kd [1] | TΔS, entropic component of binding [2] | ΔH, enthalpic term of binding [2] | Kd [2] | fold increase of binding affinity with respect to M2-M4 [2] | fold increase of binding with respect to M1 [2] | SMILES |
| --- | --- | --- | --- | --- | --- | --- | --- |
|  |  | 9.5 kcal/mol | -0.5 kcal/mol | 0.04 ± 0.02 µM | more than 70 fold | more than 400 fold | CC(=O)N[C@@H](CCC(=O)O)C(=O)N[C@@H](CCCNC(=N)N)C(=O)N[C@H]1CCCCNC(=O)C[C@@H](C(=O)N[C@H]2CCCCNC(=O)C[C@@H](C(=O)N[C@@H](CCCNC(=N)N)C(=O)N[C@@H](C)C(N)=O)NC(=O)[C@H](C(C)C)NC(=O)[C@H](CCCCN)NC(=O)[C@H](CCCNC(=N)N)NC2=O)NC(=O)[C@H](Cc2ccc(O)cc2)NC(=O)[C@H](CCCNC(=N)N)NC(=O)[C@H](Cc2c[nH]c3ccccc23)NC1=O [M6] (Ac-ERKWRYDKRKVDRA-NH2; lactam 3-7, 8-12) |
| 11% | 8.4 µM |  |  |  |  |  | CC(=O)N[C@@H](CCCNC(=N)N)C(=O)N[C@H]1CCCCNC(=O)C[C@@H](C(=O)N[C@H]2CCCCNC(=O)C[C@@H](C(=O)N[C@@H](CCCNC(=N)N)C(=O)N[C@@H](C)C(N)=O)NC(=O)[C@H](C(C)C)NC(=O)[C@H](CCCCN)NC(=O)[C@H](CCCNC(=N)N)NC2=O)NC(=O)[C@H](Cc2ccc(O)cc2)NC(=O)[C@H](CCCNC(=N)N)NC(=O)[C@H](Cc2c[nH]c3ccccc23)NC1=O [M4] (Ac-RKWRYDKRKVDRA-NH2; lactam 2-6, 7-11) |
| 16% | 5 µM |  |  |  |  |  | CC(C)[C@@H]1NC(=O)[C@H](CCCCN)NC(=O)[C@H](CCCNC(=N)N)NC(=O)[C@@H](NC(=O)[C@@H]2CC(=O)NCCCC[C@H](NC(=O)CCCNC(=N)N)C(=O)N[C@@H](Cc3c[nH]c4ccccc34)C(=O)N[C@@H](CCCNC(=N)N)C(=O)N[C@@H](Cc3ccc(O)cc3)C(=O)N2)CCCCNC(=O)C[C@@H](C(=O)N[C@@H](CCCNC(=N)N)C(=O)N[C@@H](C)C(N)=O)NC1=O [M2] ({Butanoyl(4-guanidino)}-KWRYDKRKVDRA-NH2; lactam 1-5, 6-10) |

The next lines start with the molecule.

| SMILES | increase of native protein structure in presence of mimetic, percentage of the total change in the CD signal [1] | Kd [1] | TΔS, entropic component of binding [2] | ΔH, enthalpic term of binding [2] | Kd [2] | fold increase of binding affinity with respect to M2-M4 [2] | fold increase of binding with respect to M1 [2] |
| --- | --- | --- | --- | --- | --- | --- | --- |
| CC(=O)N[C@H]1CCCCNC(=O)C[C@@H](C(=O)N[C@H]2CCCCNC(=O)C[C@@H](C(=O)N[C@@H](CCCNC(=N)N)C(=O)N[C@@H](C)C(N)=O)NC(=O)[C@H](C(C)C)NC(=O)[C@H](CCCCN)NC(=O)[C@H](CCCNC(=N)N)NC2=O)NC(=O)[C@H](Cc2ccc(O)cc2)NC(=O)[C@H](CCCNC(=N)N)NC(=O)[C@H](Cc2c[nH]c3ccccc23)NC1=O [M1] (Ac-KWRYDKRKVDRA-NH2; lactam 1-5, 6-10) | 8% | > 30 µM |  |  |  |  |  |
| CC(C)[C@@H]1NC(=O)[C@H](CCCCN)NC(=O)[C@H](CCCNC(=N)N)NC(=O)[C@@H](NC(=O)[C@@H]2CC(=O)NCCCC[C@H](NC(=O)CCCNC(=N)N)C(=O)N[C@@H](Cc3c[nH]c4ccc(O)cc34)C(=O)N[C@@H](CCCNC(=N)N)C(=O)N[C@@H](Cc3ccc(O)cc3)C(=O)N2)CCCCNC(=O)C[C@@H](C(=O)N[C@@H](CCCNC(=N)N)C(=O)N[C@@H](C)C(N)=O)NC1=O [M3] ({Butanoyl(4-guanidino)}-K[Trp(5-OH)]RYDKRKVDRA-NH2; lactam 1-5, 6-10) | 12% | 6.7 µM |  |  |  |  |  |
| CC(=O)N[C@@H](CCC(=O)O)C(=O)N[C@@H](CCCCN)C(=O)N[C@H]1CCCCNC(=O)C[C@@H](C(=O)N[C@H]2CCCCNC(=O)C[C@@H](C(=O)N[C@@H](CCCNC(=N)N)C(=O)N[C@@H](C)C(N)=O)NC(=O)[C@H](C(C)C)NC(=O)[C@H](CCCCN)NC(=O)[C@H](CCCNC(=N)N)NC2=O)NC(=O)[C@H](Cc2ccc(O)cc2)NC(=O)[C@H](CCCNC(=N)N)NC(=O)[C@H](Cc2c[nH]c3ccccc23)NC1=O [M5] (Ac-EKKWRYDKRKVDRA-NH2; lactam 3-7, 8-12) |  |  | 9.5 kcal/mol | -0.5 kcal/mol | 0.07 ± 0.02 µM | more than 70 fold | more than 400 fold |
